# From ChEMBL document CHEMBL4265966 (Bioorg Med Chem Lett, 2018)
# Active and inactive are the calls of the source. The rule behind the calls is not given here.
# Tests used:
# [1] = molecular target: T1, Sodium-dependent serotonin transporter (Homo sapiens, UniProt P31645); assay: biochemical; assay type: cell-based, HEK293
# Target sequence in this assay (P31645 whole entry): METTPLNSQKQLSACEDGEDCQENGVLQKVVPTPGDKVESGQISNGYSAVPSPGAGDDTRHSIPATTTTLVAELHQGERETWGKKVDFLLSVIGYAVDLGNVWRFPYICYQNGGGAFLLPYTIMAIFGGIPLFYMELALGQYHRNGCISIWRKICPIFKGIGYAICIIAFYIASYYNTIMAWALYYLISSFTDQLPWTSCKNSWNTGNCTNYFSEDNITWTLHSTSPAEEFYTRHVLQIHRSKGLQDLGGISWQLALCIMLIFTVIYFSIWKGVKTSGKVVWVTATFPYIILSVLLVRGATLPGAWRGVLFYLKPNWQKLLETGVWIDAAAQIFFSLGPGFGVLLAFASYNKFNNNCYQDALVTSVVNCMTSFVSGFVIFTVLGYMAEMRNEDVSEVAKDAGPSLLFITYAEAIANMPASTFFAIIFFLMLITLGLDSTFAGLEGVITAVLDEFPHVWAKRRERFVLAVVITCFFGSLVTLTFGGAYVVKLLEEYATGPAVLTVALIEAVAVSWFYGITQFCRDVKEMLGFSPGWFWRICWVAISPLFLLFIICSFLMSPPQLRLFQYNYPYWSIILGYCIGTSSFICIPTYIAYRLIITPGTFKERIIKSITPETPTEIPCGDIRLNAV
# Description: Displacement of [125I]-RTI-55 from human SERT expressed in HEK293 cell membranes after 1 hr by gamma counting method
# [2] = molecular target: T1, Sodium-dependent serotonin transporter; assay: Binding affinity to human SERT expressed in HEK293 cells at 1 uM preincubated for 1 hr followed by UV light irradiation for 20 mins in presence of (S)-citalopram by IRDye 800 CW azide based tandem photoaffinity labeling-biorthogonal conjugation assay; assay type: cell-based
# Target sequence in this assay (P31645 whole entry, looked up): as the sequence (P31645 whole entry) above
# [3] = molecular target: T1, Sodium-dependent serotonin transporter; assay: Binding affinity to human SERT expressed in HEK293 cells at 1 uM preincubated for 1 hr followed by UV light irradiation for 20 mins by IRDye 800 CW azide based tandem photoaffinity labeling-biorthogonal conjugation assay; assay type: cell-based
# Target sequence in this assay (P31645 whole entry, looked up): as the sequence (P31645 whole entry) above
# [4] = molecular target: T1, Sodium-dependent serotonin transporter; assay: Potency index, ratio of (S)-citalopram Ki to compound Ki for displacement of [125I]-RTI-55 from human SERT expressed in HEK293 cell membranes
# Target sequence in this assay (P31645 whole entry, looked up): as the sequence (P31645 whole entry) above
# [5] = molecular target: T1, Sodium-dependent serotonin transporter; assay: Binding affinity to human SERT expressed in HEK293 cells at 1 uM after 1 hr by IRDye 800 CW azide based tandem photoaffinity labeling-biorthogonal conjugation assay; assay type: cell-based
# Target sequence in this assay (P31645 whole entry, looked up): as the sequence (P31645 whole entry) above
Ki [1] [nM],Activity [2],Activity [3],Ratio Ki [4],Activity [5],Compound
0.16,inactive,Active,11,inactive,C#CCOc1ccc(C(=O)c2ccc(C(=O)NCc3ccc4c(c3)CO[C@@]4(CCCN(C)C)c3ccc(F)cc3)cc2)cc1
487,–,–,–,–,C#CCOc1ccc(C(=O)c2ccc(CN(C)CCC[C@@]3(c4ccc(F)cc4)OCc4cc(C#N)ccc43)cc2)cc1

Compound,Ki [1] [nM],Activity [2],Activity [3],Ratio Ki [4],Activity [5]
CN(C)CCC[C@@]1(c2ccc(F)cc2)OCc2cc(CNC(=O)c3cc(CN=[N+]=[N-])cc(N=[N+]=[N-])c3)ccc21,10.7,–,–,–,–
